Measurements as given in patent publication US20100015174A1, “METHOD TO CONTROL DENGUE VIRUSES IN HUMANS BY PICOLINIC ACID AND DERIVATIVES THEREOF” (priority 2008, published 2010).
Converted amounts (≈) assume the structure as drawn. Like-named read-outs stand apart in the source and are kept apart here.

Columns and labels:
VZV Ellen strain = experiment: VZV virus yield reduction assay in HEL-299 cells (real-time PCR); format: cell-based, Varicella-Zoster Virus; conditions: for Total VZV DNA copies (mean) / Total VZV DNA, % of control: 3 days
HEL cells = experiment: Toxicity to HEL cells
HCV replicon = HCV replicon (qRTCPCR/iCycler) in Ava.5 cell line; format: cell-based, Human Hepatitis C Virus; conditions: Hepatitis C virus, Ava5, 24 h, read-out: inhibition of HCV replicon
Description: (§1) Here we determine the effects of Picolinic acid and Fusaric Acid on HCV replicon cell lines. The HCV replicons (qRTCPCR/iCycler) were contained in the Ava.5 cell line tested. Normalization by OD and serial dilutions were done in the untreated cell line. The experimental design was as follows: cells were grown in 12 well cell culture plates; the compounds interaction was done for 24 hours; at extraction, cell confluence was 75%; and RNA was extracted using Qiagen Rneasy extraction kit.

Ava.5 cell line = experiment: Cytotoxicity by OD in HCV replicon cells; format: cell-based
Description: as §1

Huh7B/Sindbis cells = experiment: Cytotoxicity by OD in Sindbis replicon cells; format: cell-based; conditions: concentrations tested
Description: Here we determine the effects of Picolinic acid and Fusaric Acid on Sindbis replicon in Huh7B/Sindbis cells. The Sindbis replicons were studied by qRTCPCR/iCycler. Normalization by OD and serial dilutions were done in the untreated cell line. The experimental design was as follows: cells were grown in 12 well cell culture plates; the compounds interaction was done for 24 hours; at extraction, cell confluence was 75%; and RNA was extracted using Qiagen Rneasy extraction kit.

[1] = tested on: human hepatitis B virus (HBV); experiment: HBV DNA by real-time PCR after 9-day treatment of HepG2.2.15 cells; format: cell-based; conditions: 9 days; for EC50: 216 h, HepG2.2.15 cells, read-out: overall EC50 against HBV; for inhibition at 60 µg/mL / inhibition at 250 µg/mL: HepG2.2.15, 216 h; for inhibition at 60 µg/mL: 60 ug/mL; for inhibition at 250 µg/mL: 250 ug/mL
Description: (§2) Here we evaluate the antiviral efficacy of picolinic acid and fusaric acid against human hepatitis B virus (HBV). HepG2.2.15 cells, a cell line that was stably transfected with HBV genome was used to study the antiviral effects of PA and FA against HBV. HepG2.2.15 cells were cultured under standard conditions. HepG2.2.15 cells were seeded in a 96-well plate at 2×10^4 cells/well and grown for 24 hours. The medium was replaced with 100 uL of medium containing PA at increasing concentrations (0, 10, 100, 250, and 500 ug/mL). The concentrations of FU used were 0, 1, 10, 30, 60, and 100 ug/mL. The cells were incubated at 37° C. for 9 days. The control medium and the medium containing the antivirals were changed every 24 hours. At day 9, the culture medium containing the released HBV virions was collected, the cells washed with PBS, and lysed with lysis buffer. All samples were stored at −70° C. until analyzed.
HBV DNA from drug-treated […] cell culture medium and cell lysates was extracted using QIAamp DNA mini kit, according to manufacturer's specifications.
PCR reaction was performed in 20 uL, comprising the following compounds: dH2O; 25 mM MgCl2; 10 uM sense primer; 10 uM antisense primer; LightCycler Probe 1 (fluorescent-labeled, 5 uM); LightCycler Probe 2 (LC Red 640-labeled, 10 uM); LC FastStart DNA Master Hyb Probes; and Uracil DNA glycosylase (1 uL).
PCR mix was aliquoted and 5 uL DNA template was then added to the PCR mix. A range of HBV plasmid DNA (1×10^8, 1×10^7, 1×10^6, [ . . . ], 1×10^2, 25 copies) were used as standards for quantitative analysis.
To study the antiviral activities of PA and FA against HBV, HepG2.2.15 cells were incubated with increasing concentrations of test compounds for 9 days with medium change daily. At day 9, the medium containing secreted HBV virions was collected and used for extraction of extracellular virus DNA. The cells were lysed by 0.5% SDS and used for extraction of intracellular virus DNA. DNA was extracted using Qiagen column and then quantitatively detected by real-time PCR assay.

BVDV Trangie strain = experiment: BVDV virus yield reduction in MDBK cells (immunoperoxidase staining); format: cell-based, Bovine Viral Diarrhea Virus; conditions: 3 days
Description: BVDV Trangie strain, a well characterized non-cytopathic Australian isolate, was used in this study. The virus was cultured in MDBK cells (ATCC), and titred by immunoperoxidase staining.
80% confluent MDBK cells were infected with BVDV at a moi of 0.01 at 37° C. for 1 h. After viral inoculums was removed, Infected cells were washed with PBS and then incubated with culture medium containing PA at concentrations of 0, 10, 100, 250, 500, and 1000 ug/mL or FA at concentrations of 0, 1, 10, 30, 60, and 100 ug/mL at 37° C. for 3 days. The culture medium was then collected and stored at −70° C. The cells were harvested by one frozen/thawed cycle and centrifugation to pellet debris. The supernatant was collected and stored at −70° C.
PA of FA-treated cultures were 10-fold serially diluted, 50 uL of each dilution was added to 80% confluent MDBK cells in a 96-well plate, and incubated at 37° C. for 1 h. The innoculum was removed by washing with PBS once. The Infected cells were covered with 200 uL of 0.5% methylcellulose in culture medium and incubated at 37° C. for 2 days. After washing with PBS, the cells were fixed with 200 uL of 5% formalin in PBS for 10 min at room temperature. Subsequently, they were washed with 0.05% Tween −20/dH2O three times. Then, the cells were incubated with 50 uL mixture of three monoclonal antibodies against BVDV NS3 for 80 min at 37° C. in a humidified box. The cells were then washed as above and incubated with 50 uL of rabbit anti-mouse IgG Peroxidase-conjugate (DAKO) diluted 1:200 in 1% gelatin/PBS for 90 min at 37° C. in a humidified box. After final washes as described above, 200 uL of 3-amino-9-ethyl-carbazole was added to each well and incubated at room temperature for 30 min until the cells were stained.
The BVDV closely resembles HCV persistent Infection. After Infection with BVDV cultured MBDK were treated with different concentrations of PA or FA for 3 days. The antiviral effect was determined by virus yield reduction assays (i.e. staining using monoclonal antibodies against NS3, or titration of intracellular and extracellular virus by immunoperoxidase staining.

HepG2.2.15 cells = experiment: Toxicity to HepG2.2.15 cells (9-day treatment); format: cell-based
Description: as §2

[2] = read-out: inhibition of intracellular HBV DNA
[3] = read-out: inhibition of released HBV DNA

Q: How did the “Total VZV DNA copies (mean)” value (VZV Ellen strain; FA 1 μg/ml) turn out when `CCCCc1ccc(C(=O)O)nc1` [FA, fusaric acid] was run?
A: 753340 copies

Q: And the “Total VZV DNA, % of control” value (VZV Ellen strain; FA 1 μg/ml)?
A: 77.7 % of control

Q: What about the “Total VZV DNA copies (mean)” value (VZV Ellen strain; FA 10 μg/ml) of the same compound?
A: 685520 copies

Q: And the “Total VZV DNA, % of control” value (VZV Ellen strain; FA 10 μg/ml)?
A: 70.7 % of control

Q: And the “Total VZV DNA copies (mean)” value (VZV Ellen strain; FA 30 μg/ml)?
A: 103405 copies

Q: What about the “Total VZV DNA, % of control” value (VZV Ellen strain; FA 30 μg/ml) of the same compound?
A: 10.7 % of control

Q: What about the “Total VZV DNA copies (mean)” value (VZV Ellen strain; FA 60 μg/ml) of the same compound?
A: 66230 copies

Q: What about the “Total VZV DNA, % of control” value (VZV Ellen strain; FA 60 μg/ml) of the same compound?
A: 6.8 % of control

Q: What about the EC50 (VZV Ellen strain; Human alphaherpesvirus 3, HEL 299, read-out: EC50 against VZV replication, 50% reduction of total VZV DNA copies, HEL-299 cells) of the same compound?
A: ~14 µg/mL (≈ 78.1 µM)

Q: What about the EC90 (VZV Ellen strain; Human alphaherpesvirus 3, HEL 299, read-out: EC90 against VZV replication, total VZV DNA copies, HEL-299 cells) of the same compound?
A: ~41 µg/mL (≈ 229 µM)

Q: What about the “toxicity to HEL cells” value (HEL cells; 60 ug/mL) of the same compound?
A: no significant toxicity

Q: And the inhibition at 100 µg/mL (HCV replicon)?
A: ~60%

Q: What about the “overt cytotoxicity by OD” value (Ava.5 cell line; 100 ug/mL) of the same compound?
A: no overt cytotoxicity

Q: And the “overt cytotoxicity by OD” value (Huh7B/Sindbis cells)?
A: No overt cytotoxicity

Q: What about the EC50 [1] of the same compound?
A: > 60 µg/mL

Q: And the inhibition at 60 µg/mL [1, 2]?
A: 28%

Q: And the inhibition at 60 µg/mL [1, 3]?
A: 76.5%

Q: And the BVDV virus yield (BVDV Trangie strain; FA 1 μg/ml)?
A: 2.4 × 10^5 (pfu/ml)

Q: And the “BVDV virus yield, % of control” value (BVDV Trangie strain; FA 1 μg/ml)?
A: 80.0 % of control

Q: What about the BVDV virus yield (BVDV Trangie strain; FA 10 μg/ml) of the same compound?
A: 1.8 × 10^5 (pfu/ml)

Q: And the “BVDV virus yield, % of control” value (BVDV Trangie strain; FA 10 μg/ml)?
A: 60.0 % of control

Q: What about the BVDV virus yield (BVDV Trangie strain; FA 30 μg/ml) of the same compound?
A: 2.5 × 10^5 (pfu/ml)

Q: And the “BVDV virus yield, % of control” value (BVDV Trangie strain; FA 30 μg/ml)?
A: 83.3 % of control

Q: And the BVDV virus yield (BVDV Trangie strain; FA 60 μg/ml)?
A: 1.5 × 10^5 (pfu/ml)

Q: What about the “BVDV virus yield, % of control” value (BVDV Trangie strain; FA 60 μg/ml) of the same compound?
A: 50.0 % of control

Q: What about the “activity against BVDV” value (BVDV Trangie strain; MDBK cells) of the same compound?
A: active

Q: What about the “toxicity to HepG2.2.15 cells” value (HepG2.2.15 cells; 100 ug/ml) of the same compound?
A: 100 ug/ml was toxic to HepG2.2.15 cells.

Q: Which results are given for `O=C(O)c1ccccn1` [PA, picolinic acid]?
A: EC50 (VZV Ellen strain; Human alphaherpesvirus 3, 50% reduction of total VZV DNA copies, HEL-299 cells, read-out: EC50 against VZV replication): ~89 µg/mL (≈ 723 µM); EC90 (VZV Ellen strain; Human alphaherpesvirus 3, total VZV DNA copies, HEL-299 cells, read-out: EC90 against VZV replication): ~505 µg/mL (≈ 4100 µM); toxicity to HEL cells (HEL cells; 500 ug/mL): no significant toxicity; inhibition at 250 µg/mL (HCV replicon): ~60%; overt cytotoxicity by OD (Ava.5 cell line; 250 ug/mL): no overt cytotoxicity; overt cytotoxicity by OD (Huh7B/Sindbis cells): no overt cytotoxicity; EC50 [1]: ~139 µg/mL (≈ 1130 µM); inhibition at 250 µg/mL [1, 2]: 79.4%; inhibition at 250 µg/mL [1, 3]: 72.3%; reduction of BVDV virus yield (BVDV Trangie strain; 250 ug/mL): 76%; EC50 (BVDV Trangie strain; Bovine viral diarrhea virus isolates and strains, 72 h, MDBK cells, read-out: EC50 against BVDV): 60 µg/mL (≈ 487 µM); activity against BVDV (BVDV Trangie strain; MDBK cells): active; BVDV virus yield (BVDV Trangie strain; PA 10 μg/ml): 3.2 × 10^5 (pfu/ml); BVDV virus yield, % of control (BVDV Trangie strain; PA 10 μg/ml): 78.0 % of control; BVDV virus yield (BVDV Trangie strain; PA 100 μg/ml): 2.5 × 10^5 (pfu/ml); BVDV virus yield, % of control (BVDV Trangie strain; PA 100 μg/ml): 61.0 % of control; BVDV virus yield (BVDV Trangie strain; PA 250 μg/ml): 1.0 × 10^5 (pfu/ml); BVDV virus yield, % of control (BVDV Trangie strain; PA 250 μg/ml): 24.4 % of control; BVDV virus yield (BVDV Trangie strain; PA 500 μg/ml): 0.35 × 10^5 (pfu/ml); BVDV virus yield, % of control (BVDV Trangie strain; PA 500 μg/ml): 8.5 % of control; toxicity to HepG2.2.15 cells (HepG2.2.15 cells; 500 ug/ml): 500 ug/ml was slightly toxic to HepG2.2.15 cells.
